# According to patent US5362634A, “Process for producing A83543 compounds” (DowElanco, priority 1991, dated 1994):
# Tests used:
# [1] = tested on: SM (twospotted spider mite); assay: Greenhouse test against SM; format: in vivo; settings: Tetranychus urticae
# Description: (§1) Each test compound was formulated by dissolving the compound in an acetone/alcohol (1:1) mixture containing 23 g of "Toximul R" (sulfonate/nonionic emulsifier blend) and 13 g of "Toximul S" (sulfonate/nonionic emulsifier blend) per liter. These mixtures were then diluted with water to give the indicated concentrations.
# (§2) Two-spotted spider mites (Tetranychus urticae Koch) and cotton or melon aphids (Aphis gossypii Glover) were introduced on squash cotyledons and allowed to establish on both leaf surfaces. Other plants in the same treatment pot were left uninfested. The leaves were then sprayed with 5 mL of test solution using a DeVilbiss atomizing sprayer at 10 psi. Both surfaces of the leaves were covered until runoff and then allowed to dry for one hour. Two uninfested leaves were then excised and placed into a Petri dish containing Southern armyworm (Spodoptera eridania Cramer).
# (§3) After standard exposure periods, percent mortality was evaluated.
# guinea pigs = assay: Toxicity to the host animal, guinea pig systemic test; format: in vivo; design: key: N: none
# Description: (§4) Adult guinea pigs are used in this test system. The compounds to be tested are dissolved in aqueous polyvinyl pyrrolidone or in polyethylene glycol 200, and an appropriate amount of the solution is administered either orally or by intraperitoneal injection.
# (§5) Blood is drawn from the guinea pigs at 30 minutes except as noted, and the samples of blood are centrifuged. Dental wicks are saturated with the blood serum, and then exposed in Petri dishes to adult stable flies; blow fly larvae are exposed in test tubes. After 24 and 48 hours, the insects are examined, and the number of dead are counted. The results of the tests are recorded as the percent of the insects which are killed.
# adult stable fly (ASF) = assay: Guinea pig systemic test, adult stable fly; format: in vivo, Stomoxys calcitrans
# Description: as §4, §5
# adult BW (boll weevil) = assay: Topical test against adult BW; format: in vivo; settings: Anthonomus grandis, 72 h, 3 days
# Description: as §1
# (§6) Additional insects were evaluated using similar formulations and evaluation procedures, with the exceptions noted.
# After standard exposure periods, percent mortality was evaluated. The following abbreviations are used:
# ^a One replicate; observed 3 days after treatment
# ^b Formulated A83543A (1 mL) poured over adult insects in a Petri
# sheep = assay: Toxicity to the host animal, sheep systemic test; format: in vivo; design: key: N: none
# Description: Tests are carried out in sheep using the test method described supra in the Guinea Pig Test description. Test compound is administered by intraperitoneal or intravenous injection or intraruminally; blood samples are drawn at 24 hours in these tests.
# Haemonchus contortus = assay: In vitro test against sheep intestinal nematode; settings: read-out: worms killed
# Text: In in vitro tests against the sheep intestinal nematode Haemonchus contortus, A83543A killed 30% of the worms at a concentration of 100 ppm.
# CLH (corn leafhopper) = assay: Greenhouse test against CLH; format: in vivo, Dalbulus maidis
# Description: as §1, §6, §3
# blow fly larvae (LBF) = assay: In vitro efficacy, exposure of LBF to chemically added serum samples
# Text: ^1 Percent insect mortality following 24 to 48 hrs. in vitro exposure
# to chemically added serum samples
# SAW (Southern armyworm) = assay: Greenhouse test against SAW; format: in vivo; settings: Spodoptera eridania, squash
# Description: as §1, §2, §3
# adult stable fly = assay: In vitro efficacy against adult stable fly; settings: Stomoxys calcitrans
# Text: Tables XIX-XXI summarize in vitro studies with A83543A and A83543D.
# [2] = tested on: CRW (Southern corn rootworm); assay: Greenhouse test against CRW; format: in vivo, Diabrotica undecimpunctata howardi
# Description: as §1, §6, §3
compound,measurement,setting,value
CC[C@H]1CCC[C@H](O[C@H]2CC[C@H](N(C)C)[C@@H](C)O2)[C@@H](C)C(=O)C2=C[C@@H]3[C@@H](C=C[C@@H]4C[C@@H](O[C@@H]5O[C@@H](C)[C@H](OC)[C@@H](OC)[C@H]5OC)C[C@@H]34)[C@@H]2CC(=O)O1 [A83543A],inhibition at 6.25 ppm,"[1]; bushbean, 6.25 ppm",0%
same,inhibition at 12.5 ppm,"[1]; bushbean, 12.5 ppm",10%
same,inhibition at 25 ppm,"[1]; bushbean, 25 ppm",30%
same,inhibition at 50 ppm,"[1]; bushbean, 50 ppm",80%
same,inhibition at 100 ppm,"[1]; bushbean, 100 ppm",100%
same,inhibition at 31.25 ppm,"[1]; squash, 31.25 ppm",0%
same,inhibition at 62.5 ppm,"[1]; squash, 62.5 ppm",20%
same,inhibition at 125 ppm,"[1]; squash, 125 ppm",40%
same,inhibition at 250 ppm,"[1]; squash, 250 ppm",70%
same,Tox,guinea pigs; 10 mg/kg IP,N
same,Tox,guinea pigs; 20 mg/kg IP,N
same,Tox,guinea pigs; 30 mg/kg IP,N
same,Tox,guinea pigs; 50 mg/kg IP,N
same,Tox,guinea pigs; 50 mg/kg OR (oral),N
same,% Activity ASF,"adult stable fly (ASF); 10 mg/kg IP, bled 30 min",0%
same,% Activity ASF,"adult stable fly (ASF); 10 mg/kg IP, bled 5 hr",0%
same,% Activity ASF,"adult stable fly (ASF); 10 mg/kg IP, bled 24 hr",0%
same,% Activity ASF,"adult stable fly (ASF); 20 mg/kg IP, bled 30 min",0%
same,% Activity ASF,"adult stable fly (ASF); 20 mg/kg IP, bled 5 hr",0%
same,% Activity ASF,"adult stable fly (ASF); 20 mg/kg IP, bled 24 hr",0%
same,% Activity ASF,"adult stable fly (ASF); 30 mg/kg IP, bled 30 min",50%
same,% Activity ASF,"adult stable fly (ASF); 30 mg/kg IP, bled 5 hr",0%
same,% Activity ASF,"adult stable fly (ASF); 30 mg/kg IP, bled 24 hr",0%
same,% Activity ASF,"adult stable fly (ASF); 50 mg/kg IP, bled 30 min",100%
same,% Activity ASF,"adult stable fly (ASF); 50 mg/kg IP, bled 5 hr",40%
same,% Activity ASF,"adult stable fly (ASF); 50 mg/kg IP, bled 24 hr",30%
same,% Activity ASF,"adult stable fly (ASF); 50 mg/kg oral, bled 5 hr",60%
same,% Activity ASF,"adult stable fly (ASF); 50 mg/kg oral, bled 24 hr",0%
same,mortality at 10 mg/kg,"adult stable fly (ASF); Stomoxys calcitrans, in Cavia porcellus, 10 mg/kg IP",0%
same,mortality at 20 mg/kg,"adult stable fly (ASF); Stomoxys calcitrans, in Cavia porcellus, 20 mg/kg IP",0%
same,mortality at 30 mg/kg,"adult stable fly (ASF); Stomoxys calcitrans, in Cavia porcellus, 30 mg/kg IP",50%
same,mortality at 50 mg/kg,"adult stable fly (ASF); Stomoxys calcitrans, in Cavia porcellus, 50 mg/kg IP",100%
same,mortality at 50 mg/kg,"adult stable fly (ASF); Stomoxys calcitrans, in Cavia porcellus, 50 mg/kg OR (oral), 5-hr blood sample",60%
same,inhibition at 1 ppm,adult BW (boll weevil); 1.00 ppm,0%
same,inhibition at 5 ppm,adult BW (boll weevil); 5.00 ppm,20%
same,inhibition at 10 ppm,adult BW (boll weevil); 10.00 ppm,20%
same,inhibition at 50 ppm,adult BW (boll weevil); 50.00 ppm,100%
same,inhibition at 100 ppm,adult BW (boll weevil); 100.0 ppm,100%
same,Tox,sheep; 1.0 mg/kg IV,N
same,Tox,sheep; 10 mg/kg IP,N
same,Tox,sheep; 10 mg/kg IR,N
same,Tox,sheep; 30 mg/kg IP,N
same,Tox,sheep; 30 mg/kg IR,N
same,Tox,sheep; 50 mg/kg IP,N
same,Tox,sheep; 50 mg/kg IR,N
same,Tox,sheep; 2 × 25 mg/kg IR,N
same,killing at 100 ppm,Haemonchus contortus,30%
same,inhibition at 50 ppm,CLH (corn leafhopper); 50 ppm,0%
same,inhibition at 100 ppm,CLH (corn leafhopper); 100 ppm,30%
same,inhibition at 200 ppm,CLH (corn leafhopper); 200 ppm,90%
same,Percent insect mortality,"blow fly larvae (LBF); 0.312 ppm, 24 hr",25%
same,Percent insect mortality,"blow fly larvae (LBF); 0.312 ppm, 48 hr",50%
same,Percent insect mortality,"blow fly larvae (LBF); 0.625 ppm, 24 hr",60%
same,Percent insect mortality,"blow fly larvae (LBF); 0.625 ppm, 48 hr",90%
same,Percent insect mortality,"blow fly larvae (LBF); 1.25 ppm, 24 hr",100%
same,Percent insect mortality,"blow fly larvae (LBF); 1.25 ppm, 48 hr",100%
same,Percent insect mortality,"blow fly larvae (LBF); 2.5 ppm, 24 hr",100%
same,Percent insect mortality,"blow fly larvae (LBF); 2.5 ppm, 48 hr",100%
same,Percent insect mortality,"blow fly larvae (LBF); 5 ppm, 24 hr",100%
same,Percent insect mortality,"blow fly larvae (LBF); 5 ppm, 48 hr",100%
same,Percent insect mortality,"blow fly larvae (LBF); 10 ppm, 24 hr",100%
same,Percent insect mortality,"blow fly larvae (LBF); 10 ppm, 48 hr",100%
same,inhibition at 1.9 ppm,SAW (Southern armyworm); 1.9 ppm,0%
same,inhibition at 3.9 ppm,SAW (Southern armyworm); 3.9 ppm,20%
same,inhibition at 7.8 ppm,SAW (Southern armyworm); 7.8 ppm,20%
same,inhibition at 15.63 ppm,SAW (Southern armyworm); 15.63 ppm,40%
same,inhibition at 31.25 ppm,SAW (Southern armyworm); 31.25 ppm,55%
same,inhibition at 62.5 ppm,SAW (Southern armyworm); 62.5 ppm,100%
same,inhibition at 125 ppm,SAW (Southern armyworm); 125 ppm,100%
same,inhibition at 250 ppm,SAW (Southern armyworm); 250 ppm,100%
same,mortality at 0.5 ppm,adult stable fly; 24 hour,0%
same,mortality at 0.5 ppm,adult stable fly; 48 hour,10%
same,mortality at 1 ppm,adult stable fly; 24 hour,10%
same,mortality at 1 ppm,adult stable fly; 48 hour,60%
same,mortality at 2 ppm,adult stable fly; 24 hour,70%
same,mortality at 2 ppm,adult stable fly; 48 hour,90%
same,mortality at 5 ppm,adult stable fly; 24 hour,80%
same,mortality at 5 ppm,adult stable fly; 48 hour,100%
same,mortality at 10 ppm,adult stable fly; 24 hour,100%
same,mortality at 10 ppm,adult stable fly; 48 hour,90%
same,mortality at 25 ppm,adult stable fly; 24 hour,100%
same,mortality at 25 ppm,adult stable fly; 48 hour,100%
same,mortality at 50 ppm,adult stable fly; 24 hour,100%
same,mortality at 50 ppm,adult stable fly; 48 hour,100%
same,mortality at 100 ppm,adult stable fly; 24 hour,100%
same,mortality at 100 ppm,adult stable fly; 48 hour,100%
same,inhibition at 3 ppm,"[2]; 3 ppm, second series",0%
same,inhibition at 3.75 ppm,[2]; 3.75 ppm,0%
same,inhibition at 6 ppm,"[2]; 6 ppm, second series",30%
same,inhibition at 7.5 ppm,[2]; 7.5 ppm,10%
same,inhibition at 15 ppm,[2]; 15 ppm,50%
same,inhibition at 30 ppm,[2]; 30 ppm,100%
